Data reported in publication PMC10412636, “An analysis of interactions between three structurally diverse anthocyanidins, as well as their glucosides, and model biological membranes, albumin, and plasmid DNA” (Scientific Reports, 2023).

How the values were obtained:
[1] = DPH probe fluorescence anisotropy in MM liposomes; details: MM, negative = increase in anisotropy
Description: (§1) Two types of liposomes were used to study interactions with biological membranes: liposomes mimicking the composition of cancer cell membranes (mimic membrane liposome—MM) and liposomes formed from lipids extracted from human blood erythrocyte membranes (red blood cell membrane liposome—RBCM). […] Both lipids, dissolved in chloroform (MM liposome) and n-decane (RBCM liposome), were evaporated under a nitrogen atmosphere, and then dried in a desiccator for 90 min under a vacuum. The obtained dry lipid film was hydrated in phosphate buffer, pH 7.4, obtaining a concentration of 0.1 mg/ml, and then vortexed for one minute until a homogeneous, milky suspension was observed. The mixture was sonicated (Sonic, Milano, Italia) for 15 min keeping the sample in a bath of ice water, thus providing a cooling temperature of 0 °C. The suspension was then processed (extrusion) through polycarbonate filters with pore diameters of 100 and 200 nm using a Lipex extruder (Evonik). Liposomes, which had been prepared according to this procedure, was used in fluorimetric studies.
(§2) To investigate these properties three fluorescent probes were used: MC540, TMA-DPH, and DPH. MC540 localizes to the outer, hydrophilic part of the membrane, within the region of the glycerol skeleton[44]. Changes in the fluorescence intensity of this probe were formulated as the relative change in intensity to the control as a function of anthocyanins concentration. The TMA-DPH and DPH probes are supposed to locate nearer to the interface and in the hydrophobic region, respectively[45]. The measurement of changes in the anisotropy of the TMA-DPH and DPH probes allowed us to reflect the mobility of the fluorescent probes in the membrane, and therefore to determine the fluidity of the bilayer[46]. Fluorescence anisotropy was calculated using the formula[47]:1 A=I‖-GI⊥/I‖+2GI⊥ where I‖ and I⊥ are the intensity of fluorescence in parallel and perpendicular directions, to the plane of polarization of the excitation wave, respectively. G is an apparatus constant that depends on the emission wavelength.
(§3) Liposomes (the concentration of lipids in the sample was 0.1 mg/ml) were incubated for 30 min with the appropriate probe (dissolved in DMF, 1 µM concentration), and then the tested anthocyanins were added (final concentration of 1 to 30 µM). The control sample consisted of liposomes and a fluorescent probe. Fluorescence was measured on a fluorimeter (Cary Eclipse, Varian, San Diego, USA) at 37 °C. The excitation wavelengths λex and emission wavelengths λem respectively: MC540—λexc = 540 nm, λem = 590 nm; DPH—λexc = 360 nm, λem = 425 nm. nm; TMA-DPH—λexc = 340 nm, λem = 430 nm.

[2] = MC540 probe fluorescence intensity in RBCM liposomes; parameters: species or system human; details: 37 °C, positive = decrease
Description: as §1, §2, §3

[3] = DPH fluorescence quenching, dissociation constant with MM liposome membrane; assay type: binding; details: 37 °C
Description: as §1
(§4) The phenomenon of quenching the fluorescence of the DPH probe by biologically active substances enabled us to evaluate the partition coefficient (Kd, dissociation constant) of anthocyanins with both MM and RBCM liposome membranes. For this purpose, changes in the fluorescence intensity of this probe were checked and the coefficient was calculated using the equation[48]:2 1/F0/F-1=Kd/[liposomes]×1/[anthocyanins]+1/liposomes where F0—fluorescence intensity in the absence of anthocyanins (control sample), F—fluorescence intensity in the presence of anthocyanins, [liposomes]—concentration of liposomes in mg/ml, [anthocyanins]—concentration of anthocyanins tested mg/ml.
as §3

[4] = MC540 probe fluorescence intensity in MM liposomes; details: 37 °C, positive = decrease
Description: as §1, §2, §3

[5] = TMA-DPH probe fluorescence anisotropy in MM liposomes; details: negative = increase in anisotropy
Description: as §1, §2, §3

pHbApr-1-Neo plasmid DNA = assay: TCSPC-FCS of PicoGreen-labelled plasmid DNA with anthocyanins; assay type: binding
Description: To evaluate the biological interaction with DNA molecules the anthocyanins were initially dissolved in ETOH (1 mM). […] Mixing of such solutions with the aqueous DNA solutions used in the studies never exceeded 1% concentration ETOH (v/v) in the final solution. The DNA plasmid was labelled by PicoGreen (CPicoGreen/CDNAbp = 0.02)[52]. The pHbApr-1-Neo plasmid (10 kbp and contour length 3.4 µm) was a generous gift from the laboratory of Prof. Maciej Ugorski (Department of Biochemistry and Molecular Biology, Wrocław University of Environmental and Life Sciences Wroclaw, Poland). PicoGreen-labelled DNA samples mixed with the appropriate amount of anthocyanins were left overnight and then measured. The increasing concentration of anthocyanins in the tested samples was expressed as the ratio of the molar concentration of anthocyanins per molar concentration of DNA base pairs in a given sample (comp/bp). The 100 µl samples were measured in Ibidi 8-well chambers. Each point on the graph is a single sample (average of 10 measurements). All measurements were performed at room temperature (25 °C). Time-correlated single-photon counting fluorescence correlation spectroscopy (TCSPC-FCS) was used to study the interaction of plasmid DNA at the single molecule level with all tested anthocyanins. […] Low power of 1uW (at the back aperture of the objective) was chosen to minimize photobleaching and saturation. In the detection plane, a pinhole (50um in diameter) was used and the signal was collected by a single photon avalanche diode (SPAD, Microphoton Devices, Bolzano, Italy). Photon arrival times were stored using fast electronics (Picoharp 300, PicoQuant) in time-tagged time-resolved recording mode. Two independent times were assigned to each detected photon: (1) a time after the beginning of the measurement and (2) a time after the previous laser pulse. The FCS data analysis was done using home-built routines (DevC++, Bloodshed Software and OriginPro70, OriginLab Corporation). The TCSPC data analysis was performed using SymPhoTime software (PicoQuant). Further details of the data evaluation are given elsewhere.

[6] = DPH probe fluorescence anisotropy in RBCM liposomes; parameters: species or system human; details: RBCM, negative = increase in anisotropy
Description: as §1, §2, §3

[7] = molecular target: human serum albumin (HSA) (Homo sapiens, UniProt P02768); assay: Quenching of natural fluorescence of human serum albumin; assay type: binding; details: HSA […] 10^–5 M, 37 °C
Description: The phenomenon of quenching the natural fluorescence of human serum albumin (HSA) was used to investigate the potential interaction of anthocyanins with this protein. […] Anthocyanins with concentrations ranging from 1 to 30 µM were added to HSA dissolved in phosphate buffer (1.5 × 10^–5 M) and then incubated at 37 °C for 20 min. Emission spectra were performed on a fluorimeter Cary Eclipse (Varian, San Diego, USA) at 37 °C. HSA fluorescence was excited with a wavelength of λ = 280 nm, the emission was measured in the range from 286 to 460 nm, and the fluorescence intensity was read at 345 nm where the emission maximum of HSA was located.
The Stern–Volmer equation was used to thoroughly describe the quenching mechanism of natural fluorescence and to determine the bindings parameters of HSA: anthocyanin complexes:4 F0/F=1+Kqτ0Q=1+KSV[Q] where F0—fluorescence intensity in the absence of anthocyanins (control sample), F—fluorescence intensity in the presence of anthocyanins, KSV—Stern–Volmer quenching constant (KSV = Kq·τ0), [Q]—concentration of quencher (tested compound), Kq—bimolecular quenching constant, τ0—a lifetime of the fluorophore in the absence of quencher the fluorescence lifetime of a biopolymer is calculated as 5 × 10^–9 s[51].
The apparent binding constants (Kb) and the number of binding sites (n) can be calculated using the following equation:5 log(F0-F/F]=logKb+nlog[Q]
F0 and F are the fluorescence intensities before and after the addition of the quencher. From the linear plot of log (F0 − F)/F versus log [Q], the value of Kb was obtained from the intercept.

[8] = TMA-DPH probe fluorescence anisotropy in RBCM liposomes; parameters: species or system human; details: negative = increase in anisotropy
Description: Two types of liposomes were used to study interactions with biological membranes: liposomes mimicking the composition of cancer cell membranes (mimic membrane liposome—MM) and liposomes formed from lipids extracted from human blood erythrocyte membranes (red blood cell membrane liposome—RBCM). […] The RBCM liposome was according to the methodology described previously[42] with minor modifications[43]. Both lipids, dissolved in chloroform (MM liposome) and n-decane (RBCM liposome), were evaporated under a nitrogen atmosphere, and then dried in a desiccator for 90 min under a vacuum. The obtained dry lipid film was hydrated in phosphate buffer, pH 7.4, obtaining a concentration of 0.1 mg/ml, and then vortexed for one minute until a homogeneous, milky suspension was observed. The mixture was sonicated (Sonic, Milano, Italia) for 15 min keeping the sample in a bath of ice water, thus providing a cooling temperature of 0 °C. The suspension was then processed (extrusion) through polycarbonate filters with pore diameters of 100 and 200 nm using a Lipex extruder (Evonik). Liposomes, which had been prepared according to this procedure, was used in fluorimetric studies.
To investigate these properties three fluorescent probes were used: MC540, TMA-DPH, and DPH. MC540 localizes to the outer, hydrophilic part of the membrane, within the region of the glycerol skeleton[44]. […] The TMA-DPH and DPH probes are supposed to locate nearer to the interface and in the hydrophobic region, respectively[45]. The measurement of changes in the anisotropy of the TMA-DPH and DPH probes allowed us to reflect the mobility of the fluorescent probes in the membrane, and therefore to determine the fluidity of the bilayer[46]. Fluorescence anisotropy was calculated using the formula[47]:1 A=I‖-GI⊥/I‖+2GI⊥ where I‖ and I⊥ are the intensity of fluorescence in parallel and perpendicular directions, to the plane of polarization of the excitation wave, respectively. G is an apparatus constant that depends on the emission wavelength.
as §3

[9] = DPH fluorescence quenching, dissociation constant with RBCM liposome membrane; assay type: binding, human; details: 37 °C
Description: as §1, §4, §3

human serum albumin (HSA), sequence (P02768 25-609): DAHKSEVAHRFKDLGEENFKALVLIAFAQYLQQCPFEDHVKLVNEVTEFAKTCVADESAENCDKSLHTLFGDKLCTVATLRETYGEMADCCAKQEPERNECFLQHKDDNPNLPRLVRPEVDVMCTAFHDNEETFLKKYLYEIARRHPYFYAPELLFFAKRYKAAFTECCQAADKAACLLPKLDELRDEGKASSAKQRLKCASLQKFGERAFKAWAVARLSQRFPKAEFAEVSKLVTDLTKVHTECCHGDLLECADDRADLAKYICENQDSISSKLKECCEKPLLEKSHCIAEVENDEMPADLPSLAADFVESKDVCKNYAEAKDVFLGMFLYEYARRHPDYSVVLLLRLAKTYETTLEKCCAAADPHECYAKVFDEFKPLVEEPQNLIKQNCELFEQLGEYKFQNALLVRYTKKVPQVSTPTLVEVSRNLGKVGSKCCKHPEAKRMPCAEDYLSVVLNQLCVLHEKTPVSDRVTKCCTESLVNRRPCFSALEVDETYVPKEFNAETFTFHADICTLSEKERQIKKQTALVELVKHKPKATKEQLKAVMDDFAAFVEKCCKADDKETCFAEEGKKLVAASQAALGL

- Kd [3]: 11.5 ± 2.07 µM
- Stern Volmer constant KSV [7]: 22.46 ± 1.00 × 10^3 M^−1
- number of binding sites n [7]: 1.03 ± 0.05
- Kd [9]: 9.89 ± 1.96 µM
Structure (SMILES): Oc1cc(O)c2cc(O)c(-c3cc(O)c(O)c(O)c3)[o+]c2c1 [Dp, Delphinidin]
- Changes in DPH anisotropy relative to the control ([1]; 1 µM): -8.87±0.24%
- Changes in DPH anisotropy relative to the control ([1]; 5 µM): -12.33±0.13%
- Changes in DPH anisotropy relative to the control ([1]; 10 µM): -14.45±0.24%
- Changes in DPH anisotropy relative to the control ([1]; 20 µM): -16.33±0.38%
- Changes in DPH anisotropy relative to the control ([1]; 30 µM): -12.45±0.57%
- Changes in MC540 fluorescence intensity relative to the control ([2]; 1 µM): 19.22±0.56%
- Changes in MC540 fluorescence intensity relative to the control ([2]; 5 µM): 30.39±0.90%
- Changes in MC540 fluorescence intensity relative to the control ([2]; 10 µM): 42.45±2.77%
- Changes in MC540 fluorescence intensity relative to the control ([2]; 20 µM): 58.15±3.73%
- Changes in MC540 fluorescence intensity relative to the control ([2]; 30 µM): 64.08±6.62%
- Changes in MC540 fluorescence intensity relative to the control ([2]; 30 µM, listed as delphinidin): 64.1 ± 6.6%
- Changes in MC540 fluorescence intensity relative to the control ([4]; 1 µM): 13.66±1.64%
- Changes in MC540 fluorescence intensity relative to the control ([4]; 5 µM): 26.57±1.99%
- Changes in MC540 fluorescence intensity relative to the control ([4]; 10 µM): 41.91±1.76%
- Changes in MC540 fluorescence intensity relative to the control ([4]; 20 µM): 63.50±4.28%
- Changes in MC540 fluorescence intensity relative to the control ([4]; 30 µM): 73.23±5.31%
- Changes in MC540 fluorescence intensity relative to the control ([4]; 30 µM, listed as delphinidin): 73.2 ± 5.3%
- Changes in TMA-DPH anisotropy relative to the control ([5]; 1 µM): -5.27±0.20%
- Changes in TMA-DPH anisotropy relative to the control ([5]; 5 µM): -5.27±0.16%
- Changes in TMA-DPH anisotropy relative to the control ([5]; 10 µM): -2.04±0.17%
- Changes in TMA-DPH anisotropy relative to the control ([5]; 20 µM): 0.86±0.02%
- Changes in TMA-DPH anisotropy relative to the control ([5]; 30 µM): -7.43±0.30%
- change in Particle Number (PN) (pHbApr-1-Neo plasmid DNA; comp/bp 1.0–5.0): no changes
- diffusion time (tD), plateau (pHbApr-1-Neo plasmid DNA; comp/bp 1.0–5.0): 25 to 28 ms
- lifetime (LT) (pHbApr-1-Neo plasmid DNA; comp/bp 1.0–5.0, decrease from 3.5 ns): about 2.3 ns
- decrease in the diffusion time (tD) (pHbApr-1-Neo plasmid DNA; comp/bp = 0.8, from about 70 ms): tenfold
- lifetime (LT) (pHbApr-1-Neo plasmid DNA; comp/bp = 0.8, plasmid alone 4.25 ns): about 3.5 ns
- Particle Number (PN) (pHbApr-1-Neo plasmid DNA; comp/bp = 0.8, plasmid alone 5): about 1.2
- diffusion time (tD) (pHbApr-1-Neo plasmid DNA; comp/bp = 0.8, plasmid alone about 70 ms): 7.0 ms
- changes in plasmid tD, lower compared to those obtained for Pt 3-glc (pHbApr-1-Neo plasmid DNA; comp/bp up to 0.8): about 2 fold
- decrease in tD compared to the initial plasmid diffusion time (pHbApr-1-Neo plasmid DNA; plateau, comp/bp 1.0–5.0): twofold
- Changes in DPH anisotropy relative to the control ([6]; 1 µM): -9.06±0.14%
- Changes in DPH anisotropy relative to the control ([6]; 5 µM): -9.32±0.41%
- Changes in DPH anisotropy relative to the control ([6]; 10 µM): -6.55±0.22%
- Changes in DPH anisotropy relative to the control ([6]; 20 µM): -8.84±0.31%
- Changes in DPH anisotropy relative to the control ([6]; 30 µM): -7.33±0.24%
- Changes in TMA-DPH anisotropy relative to the control ([8]; 1 µM): -5.61±0.35%
- Changes in TMA-DPH anisotropy relative to the control ([8]; 5 µM): -2.41±0.11%
- Changes in TMA-DPH anisotropy relative to the control ([8]; 10 µM): 1.85±0.06%
- Changes in TMA-DPH anisotropy relative to the control ([8]; 20 µM): 1.35±0.15%
- Changes in TMA-DPH anisotropy relative to the control ([8]; 30 µM): 4.73±0.21%
